Reference: PubChem BioAssay (NCI)
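Tested at 5 concentrations; 48 h exposure; 96-well plates; endpoints linearly interpolated, else capped at highest concentration. Here, GI50 denotes the concentration required for 50% inhibition of growth. TGI: total growth inhibition.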

Columns and labels:
Assay in all cases: NCI-60 cell line screen, 48 h
786-0 renal = test system: 786-0 renal
A498 renal = test system: A498 renal
A549 NSCLC = test system: A549 NSCLC
ACHN renal = test system: ACHN renal
BT-549 breast = test system: BT-549 breast
CAKI-1 renal = test system: CAKI-1 renal
CCRF-CEM leukemia = test system: CCRF-CEM leukemia
COLO 205 colon = test system: COLO 205 colon
EKVX NSCLC = test system: EKVX NSCLC
HCT-15 colon = test system: HCT-15 colon
HOP-62 NSCLC = test system: HOP-62 NSCLC
HS 578T breast = test system: HS 578T breast
HT29 colon = test system: HT29 colon
IGROV1 ovarian = test system: IGROV1 ovarian
K-562 leukemia = test system: K-562 leukemia
KM12 colon = test system: KM12 colon
LOX IMVI melanoma = test system: LOX IMVI melanoma
M14 melanoma = test system: M14 melanoma
MCF7 breast = test system: MCF7 breast
MDA-MB-231 breast = test system: MDA-MB-231 breast
MDA-MB-435 = test system: MDA-MB-435
MOLT-4 leukemia = test system: MOLT-4 leukemia
NCI-H226 lung = test system: NCI-H226 lung
NCI-H460 lung = test system: NCI-H460 lung
NCI-H522 lung = test system: NCI-H522 lung
OVCAR-3 ovarian = test system: OVCAR-3 ovarian
OVCAR-8 ovarian = test system: OVCAR-8 ovarian
PC-3 prostate = test system: PC-3 prostate
RPMI-8226 leukemia = test system: RPMI-8226 leukemia
RXF 393 renal = test system: RXF 393 renal
SF-268 CNS = test system: SF-268 CNS
SF-295 CNS = test system: SF-295 CNS
SF-539 CNS = test system: SF-539 CNS
SK-MEL-2 melanoma = test system: SK-MEL-2 melanoma
SK-MEL-5 melanoma = test system: SK-MEL-5 melanoma
SN12C renal = test system: SN12C renal
SNB-19 CNS = test system: SNB-19 CNS
SR leukemia = test system: SR leukemia
SW-620 colon = test system: SW-620 colon
TK-10 renal = test system: TK-10 renal
U251 CNS = test system: U251 CNS
UACC-257 melanoma = test system: UACC-257 melanoma
UACC-62 melanoma = test system: UACC-62 melanoma
UO-31 renal = test system: UO-31 renal
DU-145 prostate = test system: DU-145 prostate
HCC-2998 colon = test system: HCC-2998 colon
HCT-116 colon = test system: HCT-116 colon
HL-60(TB) leukemia = test system: HL-60(TB) leukemia
HOP-92 NSCLC = test system: HOP-92 NSCLC
MALME-3M melanoma = test system: MALME-3M melanoma
NCI-H23 lung = test system: NCI-H23 lung
NCI/ADR-RES ovarian = test system: NCI/ADR-RES ovarian
OVCAR-4 ovarian = test system: OVCAR-4 ovarian
OVCAR-5 ovarian = test system: OVCAR-5 ovarian
SK-OV-3 ovarian = test system: SK-OV-3 ovarian
SNB-75 CNS = test system: SNB-75 CNS

For Oc1ccc(-c2cn3cc(Cl)sc3n2)cc1, the GI50 (786-0 renal) was 18.2 µM, the TGI (786-0 renal) was 67.1 µM and the GI50 (A498 renal) was 57.5 µM. For the same compound, the TGI (A498 renal) was > 100 µM, the GI50 (A549 NSCLC) was 30.8 µM and the TGI (A549 NSCLC) was > 100 µM. The GI50 (ACHN renal) was 3.98 µM, the TGI (ACHN renal) was 24.6 µM and the GI50 (BT-549 breast) was 32.1 µM. The TGI (BT-549 breast) was > 100 µM, the GI50 (CAKI-1 renal) was 41.5 µM and the TGI (CAKI-1 renal) was > 100 µM. It also gave a GI50 (CCRF-CEM leukemia) of 12.1 µM, a TGI (CCRF-CEM leukemia) of 39.8 µM and a GI50 (COLO 205 colon) of 19.8 µM. For the same compound, the TGI (COLO 205 colon) was 43.4 µM, the GI50 (EKVX NSCLC) was 47.6 µM and the TGI (EKVX NSCLC) was > 100 µM. The GI50 (HCT-15 colon) was > 100 µM, the TGI (HCT-15 colon) was > 100 µM and the GI50 (HOP-62 NSCLC) was > 100 µM. The TGI (HOP-62 NSCLC) was > 100 µM, the GI50 (HS 578T breast) was > 100 µM and the TGI (HS 578T breast) was > 100 µM. For the same compound, the GI50 (HT29 colon) was 24.2 µM, the TGI (HT29 colon) was 78.8 µM and the GI50 (IGROV1 ovarian) was 67.7 µM. The TGI (IGROV1 ovarian) was > 100 µM, the GI50 (K-562 leukemia) was 36.7 µM and the TGI (K-562 leukemia) was > 100 µM. The GI50 (KM12 colon) was 20.9 µM, the TGI (KM12 colon) was 74.1 µM and the GI50 (LOX IMVI melanoma) was 32.3 µM. The TGI (LOX IMVI melanoma) was 86.2 µM, the GI50 (M14 melanoma) was 20.1 µM and the TGI (M14 melanoma) was 56.8 µM. For the same compound, the GI50 (MCF7 breast) was 6.77 µM, the TGI (MCF7 breast) was 26.9 µM and the GI50 (MDA-MB-231 breast) was > 100 µM. For the same compound, the TGI (MDA-MB-231 breast) was > 100 µM, the GI50 (MDA-MB-435) was 32.3 µM and the TGI (MDA-MB-435) was > 100 µM. For the same compound, the GI50 (MOLT-4 leukemia) was 16.5 µM, the TGI (MOLT-4 leukemia) was 34.3 µM and the GI50 (NCI-H226 lung) was 5.49 µM. The TGI (NCI-H226 lung) was 48.5 µM, the GI50 (NCI-H460 lung) was 12.9 µM and the TGI (NCI-H460 lung) was 53.5 µM. For the same compound, the GI50 (NCI-H522 lung) was 32.6 µM, the TGI (NCI-H522 lung) was > 100 µM and the GI50 (OVCAR-3 ovarian) was 22.5 µM. For the same compound, the TGI (OVCAR-3 ovarian) was 64.1 µM, the GI50 (OVCAR-8 ovarian) was 56.3 µM and the TGI (OVCAR-8 ovarian) was > 100 µM. For the same compound, the GI50 (PC-3 prostate) was 15.9 µM, the TGI (PC-3 prostate) was 46.8 µM and the GI50 (RPMI-8226 leukemia) was 16.5 µM. For the same compound, the TGI (RPMI-8226 leukemia) was 40.7 µM, the GI50 (RXF 393 renal) was > 100 µM and the TGI (RXF 393 renal) was > 100 µM. The GI50 (SF-268 CNS) was 12.2 µM, the TGI (SF-268 CNS) was 80.2 µM and the GI50 (SF-295 CNS) was 47.3 µM. The TGI (SF-295 CNS) was > 100 µM, the GI50 (SF-539 CNS) was > 100 µM and the TGI (SF-539 CNS) was > 100 µM. The GI50 (SK-MEL-2 melanoma) was > 100 µM, the TGI (SK-MEL-2 melanoma) was > 100 µM and the GI50 (SK-MEL-5 melanoma) was 29.8 µM. For the same compound, the TGI (SK-MEL-5 melanoma) was 78.1 µM, the GI50 (SN12C renal) was 0.248 µM and the TGI (SN12C renal) was 94.8 µM. For the same compound, the GI50 (SNB-19 CNS) was 58.8 µM, the TGI (SNB-19 CNS) was > 100 µM and the GI50 (SR leukemia) was 4.51 µM. The TGI (SR leukemia) was 18.8 µM, the GI50 (SW-620 colon) was 56.9 µM and the TGI (SW-620 colon) was > 100 µM. The GI50 (TK-10 renal) was 40.4 µM, the TGI (TK-10 renal) was 84.9 µM and the GI50 (U251 CNS) was > 100 µM. For the same compound, the TGI (U251 CNS) was > 100 µM, the GI50 (UACC-257 melanoma) was 46.2 µM and the TGI (UACC-257 melanoma) was > 100 µM. The GI50 (UACC-62 melanoma) was 5.36 µM, the TGI (UACC-62 melanoma) was 41.6 µM and the GI50 (UO-31 renal) was > 100 µM. The TGI (UO-31 renal) was > 100 µM.

With CC(=O)O[C@H]1CC[C@@]2(C)C(=C[C@H](c3ccc(O)cc3)[C@H]3[C@@H]4CC[C@H](OC(C)=O)[C@@]4(C)CC[C@@H]32)C1 the TGI (786-0 renal) was 38.3 µM, the TGI (A498 renal) was 57.8 µM and the TGI (A549 NSCLC) was 40.5 µM. It also gave a TGI (ACHN renal) of 80.6 µM, a TGI (BT-549 breast) of 29.4 µM and a TGI (CAKI-1 renal) of 53.4 µM. It also gave a TGI (CCRF-CEM leukemia) of 56.1 µM, a TGI (COLO 205 colon) of 35.2 µM and a TGI (DU-145 prostate) of 48.8 µM. The TGI (EKVX NSCLC) was 37.4 µM, the TGI (HCC-2998 colon) was 36.2 µM and the TGI (HCT-116 colon) was 29.7 µM. For the same compound, the TGI (HCT-15 colon) was 24.8 µM, the TGI (HL-60(TB) leukemia) was 58 µM and the TGI (HOP-62 NSCLC) was 66.9 µM. The TGI (HOP-92 NSCLC) was 81.5 µM, the TGI (HT29 colon) was 26.5 µM and the TGI (K-562 leukemia) was 59.4 µM. The TGI (KM12 colon) was 31 µM, the TGI (LOX IMVI melanoma) was 27.1 µM and the TGI (M14 melanoma) was 41.3 µM. The TGI (MALME-3M melanoma) was 34.2 µM, the TGI (MCF7 breast) was 57.4 µM and the TGI (MDA-MB-231 breast) was 35.8 µM. The TGI (MDA-MB-435) was 62.6 µM, the TGI (MOLT-4 leukemia) was 45.3 µM and the TGI (NCI-H226 lung) was 40.5 µM. It also gave a TGI (NCI-H23 lung) of 53.7 µM, a TGI (NCI-H460 lung) of 40.6 µM and a TGI (NCI/ADR-RES ovarian) of 31.9 µM. The TGI (OVCAR-3 ovarian) was 38.8 µM, the TGI (OVCAR-4 ovarian) was 41 µM and the TGI (OVCAR-5 ovarian) was 97.9 µM. It also gave a TGI (OVCAR-8 ovarian) of 33.8 µM, a TGI (PC-3 prostate) of 46.2 µM and a TGI (RPMI-8226 leukemia) of 45.8 µM. The TGI (RXF 393 renal) was 51.1 µM, the TGI (SF-268 CNS) was 39.3 µM and the TGI (SF-295 CNS) was 77.9 µM. The TGI (SF-539 CNS) was 43.9 µM, the TGI (SK-MEL-2 melanoma) was 48.4 µM and the TGI (SK-MEL-5 melanoma) was 23.8 µM. For the same compound, the TGI (SK-OV-3 ovarian) was > 100 µM, the TGI (SN12C renal) was 69 µM and the TGI (SNB-19 CNS) was 47.7 µM. The TGI (SNB-75 CNS) was 51.7 µM, the TGI (SW-620 colon) was 46.2 µM and the TGI (TK-10 renal) was > 100 µM. For the same compound, the TGI (U251 CNS) was 48 µM, the TGI (UACC-257 melanoma) was 51.6 µM and the TGI (UACC-62 melanoma) was 23 µM. The TGI (UO-31 renal) was 76.4 µM.
